For this experiment, the target named is T1, human Cav2.2 (Homo sapiens, UniProt Q00975).
T1 construct: cells endogenously expressing human Cav2.2; endogenous in cells; host or cells: IMR32 cells
T1 sequence (Q00975 whole entry): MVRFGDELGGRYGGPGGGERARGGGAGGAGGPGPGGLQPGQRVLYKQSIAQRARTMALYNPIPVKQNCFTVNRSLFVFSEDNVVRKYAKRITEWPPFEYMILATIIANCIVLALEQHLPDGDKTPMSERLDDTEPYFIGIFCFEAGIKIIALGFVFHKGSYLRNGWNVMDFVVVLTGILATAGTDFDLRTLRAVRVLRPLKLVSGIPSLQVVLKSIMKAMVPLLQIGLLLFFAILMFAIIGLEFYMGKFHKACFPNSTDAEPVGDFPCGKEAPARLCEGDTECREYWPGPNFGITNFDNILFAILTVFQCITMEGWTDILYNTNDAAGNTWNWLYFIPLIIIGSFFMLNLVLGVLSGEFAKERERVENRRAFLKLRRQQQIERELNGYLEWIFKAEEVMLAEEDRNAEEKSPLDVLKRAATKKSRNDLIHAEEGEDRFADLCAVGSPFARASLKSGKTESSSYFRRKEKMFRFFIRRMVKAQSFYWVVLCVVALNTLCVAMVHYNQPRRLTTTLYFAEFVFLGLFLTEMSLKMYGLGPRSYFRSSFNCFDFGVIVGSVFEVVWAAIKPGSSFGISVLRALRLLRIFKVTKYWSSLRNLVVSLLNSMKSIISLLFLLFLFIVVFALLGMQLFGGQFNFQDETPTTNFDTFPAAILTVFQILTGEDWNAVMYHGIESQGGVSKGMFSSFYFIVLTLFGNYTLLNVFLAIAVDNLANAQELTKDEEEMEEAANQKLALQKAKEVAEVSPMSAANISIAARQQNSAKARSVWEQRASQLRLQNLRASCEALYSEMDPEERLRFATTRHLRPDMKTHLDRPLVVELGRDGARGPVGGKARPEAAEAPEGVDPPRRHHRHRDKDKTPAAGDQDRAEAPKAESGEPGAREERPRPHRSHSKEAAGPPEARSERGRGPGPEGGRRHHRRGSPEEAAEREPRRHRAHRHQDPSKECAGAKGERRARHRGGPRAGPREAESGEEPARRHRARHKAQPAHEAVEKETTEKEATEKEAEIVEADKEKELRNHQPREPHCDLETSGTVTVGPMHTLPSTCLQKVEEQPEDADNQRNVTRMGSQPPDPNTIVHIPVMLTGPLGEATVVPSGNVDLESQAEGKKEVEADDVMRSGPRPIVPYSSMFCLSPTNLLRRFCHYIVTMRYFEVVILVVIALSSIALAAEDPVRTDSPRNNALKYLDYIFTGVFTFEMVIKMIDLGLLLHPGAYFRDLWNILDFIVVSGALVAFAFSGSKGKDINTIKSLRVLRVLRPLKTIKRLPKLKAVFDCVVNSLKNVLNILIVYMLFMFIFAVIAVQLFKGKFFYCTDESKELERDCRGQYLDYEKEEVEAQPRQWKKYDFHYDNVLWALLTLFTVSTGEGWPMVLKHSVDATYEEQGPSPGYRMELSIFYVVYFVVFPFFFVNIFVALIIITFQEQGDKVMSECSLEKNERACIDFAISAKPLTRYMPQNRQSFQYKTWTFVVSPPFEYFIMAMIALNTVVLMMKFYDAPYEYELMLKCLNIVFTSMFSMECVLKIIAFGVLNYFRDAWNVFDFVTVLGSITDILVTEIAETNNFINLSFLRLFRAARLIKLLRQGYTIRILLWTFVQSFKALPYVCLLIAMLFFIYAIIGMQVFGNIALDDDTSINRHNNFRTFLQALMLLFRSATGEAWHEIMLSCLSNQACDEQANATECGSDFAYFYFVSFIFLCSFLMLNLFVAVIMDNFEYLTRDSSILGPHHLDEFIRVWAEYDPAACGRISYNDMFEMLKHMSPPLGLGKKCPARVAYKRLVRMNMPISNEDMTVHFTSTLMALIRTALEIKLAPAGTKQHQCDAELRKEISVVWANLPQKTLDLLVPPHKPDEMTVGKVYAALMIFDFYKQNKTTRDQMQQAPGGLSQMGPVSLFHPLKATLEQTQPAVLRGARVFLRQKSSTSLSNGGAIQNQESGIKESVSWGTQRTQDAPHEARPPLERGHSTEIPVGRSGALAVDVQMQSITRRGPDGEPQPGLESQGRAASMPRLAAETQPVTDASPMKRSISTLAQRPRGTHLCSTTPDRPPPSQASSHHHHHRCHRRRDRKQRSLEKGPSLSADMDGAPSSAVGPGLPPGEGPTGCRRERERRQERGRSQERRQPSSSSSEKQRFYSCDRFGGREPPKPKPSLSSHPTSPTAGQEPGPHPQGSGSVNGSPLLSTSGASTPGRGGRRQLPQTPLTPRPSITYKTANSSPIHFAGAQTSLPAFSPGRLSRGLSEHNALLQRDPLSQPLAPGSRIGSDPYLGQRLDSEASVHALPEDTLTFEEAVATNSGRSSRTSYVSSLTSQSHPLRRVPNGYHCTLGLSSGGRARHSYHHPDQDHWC
T1 sequence (P54284 whole entry partner): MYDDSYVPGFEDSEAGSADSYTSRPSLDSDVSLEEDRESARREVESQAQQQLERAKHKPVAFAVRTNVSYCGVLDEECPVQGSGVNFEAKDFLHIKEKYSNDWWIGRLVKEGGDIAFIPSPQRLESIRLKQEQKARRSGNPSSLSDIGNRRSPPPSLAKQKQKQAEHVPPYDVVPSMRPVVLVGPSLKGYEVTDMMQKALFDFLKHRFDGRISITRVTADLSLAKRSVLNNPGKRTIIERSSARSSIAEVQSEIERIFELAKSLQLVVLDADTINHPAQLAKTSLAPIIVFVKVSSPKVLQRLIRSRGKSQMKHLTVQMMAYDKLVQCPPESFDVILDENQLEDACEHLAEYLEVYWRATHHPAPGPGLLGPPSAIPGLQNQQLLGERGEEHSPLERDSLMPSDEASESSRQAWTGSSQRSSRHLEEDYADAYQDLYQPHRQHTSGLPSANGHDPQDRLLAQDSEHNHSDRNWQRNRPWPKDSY
T1 sequence (P54289 25-956 partner limits assumed): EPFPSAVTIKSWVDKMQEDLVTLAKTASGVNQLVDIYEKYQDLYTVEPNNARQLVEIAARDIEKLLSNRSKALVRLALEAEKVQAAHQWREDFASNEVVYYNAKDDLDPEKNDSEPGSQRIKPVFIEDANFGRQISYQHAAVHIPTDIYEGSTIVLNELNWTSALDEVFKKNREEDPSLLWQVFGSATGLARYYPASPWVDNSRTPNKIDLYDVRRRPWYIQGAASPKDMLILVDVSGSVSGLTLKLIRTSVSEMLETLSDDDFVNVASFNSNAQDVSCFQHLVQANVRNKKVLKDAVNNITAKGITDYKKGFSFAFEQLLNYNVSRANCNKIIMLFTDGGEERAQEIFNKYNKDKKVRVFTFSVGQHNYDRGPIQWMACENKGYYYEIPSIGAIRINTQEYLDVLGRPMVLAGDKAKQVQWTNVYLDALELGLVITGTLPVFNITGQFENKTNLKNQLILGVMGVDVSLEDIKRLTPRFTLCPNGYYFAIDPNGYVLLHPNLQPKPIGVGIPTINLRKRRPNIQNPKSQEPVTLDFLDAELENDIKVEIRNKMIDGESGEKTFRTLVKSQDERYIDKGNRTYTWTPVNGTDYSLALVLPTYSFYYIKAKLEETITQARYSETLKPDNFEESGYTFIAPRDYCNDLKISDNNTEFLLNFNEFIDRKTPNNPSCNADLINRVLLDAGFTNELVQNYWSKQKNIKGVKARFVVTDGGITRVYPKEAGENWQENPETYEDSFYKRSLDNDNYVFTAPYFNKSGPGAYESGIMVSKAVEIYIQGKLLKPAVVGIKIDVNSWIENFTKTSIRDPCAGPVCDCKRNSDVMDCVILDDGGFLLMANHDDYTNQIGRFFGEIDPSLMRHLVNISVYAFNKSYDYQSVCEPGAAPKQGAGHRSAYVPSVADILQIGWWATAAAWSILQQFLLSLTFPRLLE
T1 sequence (P54289 957-1103 partner limits assumed): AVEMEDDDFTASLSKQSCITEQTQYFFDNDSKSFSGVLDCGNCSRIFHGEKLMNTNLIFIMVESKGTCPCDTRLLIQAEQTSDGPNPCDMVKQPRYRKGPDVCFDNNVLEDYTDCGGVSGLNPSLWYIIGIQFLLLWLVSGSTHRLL
The experiment in a line: Calcium flux (FLIPR, Calcium 4 dye) in IMR32 cells endogenously expressing human Cav2.2. To be noted: 60 minute pre-incubation, 2 μM nifedipine to block L-type channels, depolarized with 80 mM KCl, 5 mM CaCl2, average of n≥2 runs unless marked *. The class given is cell-based. As for the experimental part: Compounds were tested for effect on calcium flux in cells endogenously expressing human Cav2.2. Specifically, IMR32 cells endogenously expressing human Cav2.2 were assayed for Ca^2+ influx using a no-wash calcium indicator dye (Calcium 4 dye: Molecular Probes) and FLIPR technology (Lubin, M L; et al. Assay and Drug Development Technologies, 2006, 4(6), 689-694). The IMR32 cells were maintained in MEM media containing 10% (v/v) FBS, 1% (v/v) antibiotic/antimitotic, 1% (v/v) sodium pyruvate and 1% (v/v) MEM NEAA. Following dissociation in 0.05% (v/v) trypsin/EDTA, cells were seeded into black 1×96-well plates (Corning Cellbind) at a density of 1−1.2×10^5 cells/well and incubated in the maintenance media above for 48 hours at 37° C. Immediately prior to performing the assay the media was removed and cells were loaded for 1.5 hours with 1× Calcium 4 dye prepared in HBSS (137 mM NaCl, 5.4 mM KCl, 0.25 mM Na2HPO4, 0.44 mM KH2PO4, 1.3 mM CaCl2, 1 mM MgSO4, 4.2 mM NaHCO3) containing HEPES pH 7.4 at room temperature. After dye loading and a subsequent 60 minute pre-incubation with compounds (full log dilutions from 10 μM to 0.1 nM) in the presence of 1.3 mM CaCl2 and 2 μM nifedipine to block endogenous L-type channels, the external Ca^2+ concentration was increased to 5 mM CaCl2 and the cells concomitantly depolarized with 80 mM KCl to assay channel activity.
To determine the IC50 values, the percent inhibition of the compound at each concentration was determined relative to the activity in the absence of inhibitor, and data was fitted using non-linear regression sigmoidal dose response curve analysis with GraphPad Prism®. Unless otherwise indicated (*), the reported values are average values from at least two runs (i.e., n≧2).
Regarding `O=C1[C@@H]2C[C@@H](Oc3cnc(C4CC4)cn3)CN2CCCN1Cc1ccc(C(F)(F)F)c(F)c1` [Example 25, (8R,9aS)-8-[(5-cyclopropylpyrazin-2-yl)oxy]-2-[3-fluoro-4-(trifluoromethyl)benzyl]octahydro-1H-pyrrolo[1,2-a][1,4]diazepin-1-one], the IC50 (usually the concentration that inhibits the measured activity by half) stood at 1190 nM.

`O=C1[C@@H]2C[C@@H](Oc3cnc(C4CC4)cn3)CN2CCCN1Cc1ccc(F)c(C(F)(F)F)c1` [Example 26, (8R,9aS)-8-[(5-cyclopropylpyrazin-2-yl)oxy]-2-[4-fluoro-3-(trifluoromethyl)benzyl]octahydro-1H-pyrrolo[1,2-a][1,4]diazepin-1-one]: the IC50 turned out to be 1100 nM.

Consider `O=C1[C@@H]2C[C@@H](Oc3cnc(C4CC4)cn3)CN2CCCN1c1cccc(C(F)(F)F)c1` [Example 27, (8R,9aS)-8-[(5-cyclopropylpyrazin-2-yl)oxy]-2-[3-(trifluoromethyl)phenyl]octahydro-1H-pyrrolo[1,2-a][1,4]diazepin-1-one], for which the concentration for half-maximal inhibition (IC50) was found to be 10000 nM.

In the case of `O=C1CCN(S(=O)(=O)c2cccc(C(F)(F)F)c2)C[C@@H]2C[C@@H](Oc3cnc(C4CC4)cn3)CN12` [Example 28, (8R,9aS)-8-[(5-cyclopropylpyrazin-2-yl)oxy]-2-{[3-(trifluoromethyl)phenyl]sulfonyl}octahydro-5H-pyrrolo[1,2-a][1,4]diazepin-5-one], the IC50 worked out at 1830 nM.

Take `O=C1CCN(S(=O)(=O)c2ccc(C(F)(F)F)cc2)C[C@@H]2C[C@@H](Oc3cnc(C4CC4)cn3)CN12` [Example 29, (8R,9aS)-8-[(5-cyclopropylpyrazin-2-yl)oxy]-2-{[4-(trifluoromethyl)phenyl]sulfonyl}octahydro-5H-pyrrolo[1,2-a][1,4]diazepin-5-one]: the IC50 is 490 nM.

For the compound `O=C1CCN(c2ccc(C(F)(F)F)cn2)C[C@@H]2C[C@H](Oc3cnc(C4CC4)cn3)CN12` [Example 30, (8S,9aS)-8-[(5-cyclopropylpyrazin-2-yl)oxy]-2-[5-(trifluoromethyl)pyridin-2-yl]octahydro-5H-pyrrolo[1,2-a][1,4]diazepin-5-one], the IC50 was 6340 nM.

For the compound `O=C1CCN(S(=O)(=O)c2cccc(C(F)(F)F)c2)C[C@@H]2C[C@@H](Oc3ccc(C(F)(F)F)cn3)CN12` [Example 31, (8R,9aS)-2-{[3-(trifluoromethyl)phenyl]sulfonyl}-8-{[5-(trifluoromethyl)pyridin-2-yl]oxy}octahydro-5H-pyrrolo[1,2-a][1,4]diazepin-5-one], the IC50 was determined as 600 nM.

Regarding `O=C(c1ccc(C(F)(F)F)cc1)N1CCC(=O)N2C[C@H](Oc3cnc(C4CC4)cn3)C[C@H]2C1` [Example 33, (8R,9aS)-8-[(5-cyclopropylpyrazin-2-yl)oxy]-2-[4-(trifluoromethyl)benzoyl]octahydro-5H-pyrrolo[1,2-a][1,4]diazepin-5-one], the IC50 was found to be 3730 nM.

With `O=C(c1cccc(C(F)(F)F)c1F)N1CCC(=O)N2C[C@H](Oc3cnc(C4CC4)cn3)C[C@H]2C1` [Example 34, (8R,9aS)-8-[(5-cyclopropylpyrazin-2-yl)oxy]-2-[2-fluoro-3-(trifluoromethyl)benzoyl]octahydro-5H-pyrrolo[1,2-a][1,4]diazepin-5-one], the IC50 is 1010 nM.

For the compound `O=C(c1ccc(C(F)(F)F)c(F)c1)N1CCC(=O)N2C[C@H](Oc3cnc(C4CC4)cn3)C[C@H]2C1` [Example 35, (8R,9aS)-8-[(5-cyclopropylpyrazin-2-yl)oxy]-2-[3-fluoro-4-(trifluoromethyl)benzoyl]octahydro-5H-pyrrolo[1,2-a][1,4]diazepin-5-one], the IC50 turned out to be 1030 nM.

Take `O=C(c1ccc(F)c(C(F)(F)F)c1)N1CCC(=O)N2C[C@H](Oc3cnc(C4CC4)cn3)C[C@H]2C1` [Example 36, (8R,9aS)-8-[(5-cyclopropylpyrazin-2-yl)oxy]-2-[4-fluoro-3-(trifluoromethyl)benzoyl]octahydro-5H-pyrrolo[1,2-a][1,4]diazepin-5-one]: the IC50 was 1780 nM.

As to `O=C(c1cccc(OC(F)(F)F)c1)N1CCC(=O)N2C[C@H](Oc3cnc(C4CC4)cn3)C[C@H]2C1` [Example 37, (8R,9aS)-8-[(5-cyclopropylpyrazin-2-yl)oxy]-2-[3-(trifluoromethoxy)benzoyl]octahydro-5H-pyrrolo[1,2-a][1,4]diazepin-5-one], the concentration for half-maximal inhibition (IC50) was determined as 1140 nM.

In the case of `O=C(c1ccc(OC(F)(F)F)cc1)N1CCC(=O)N2C[C@H](Oc3cnc(C4CC4)cn3)C[C@H]2C1` [Example 38, (8R,9aS)-8-[(5-cyclopropylpyrazin-2-yl)oxy]-2-[4-(trifluoromethoxy)benzoyl]octahydro-5H-pyrrolo[1,2-a][1,4]diazepin-5-one], the half-maximal inhibitory concentration (IC50) was found to be 2810 nM.

For `O=C(Cc1cccc(C(F)(F)F)c1)N1CCC(=O)N2C[C@H](Oc3cnc(C4CC4)cn3)C[C@H]2C1` [Example 39], the concentration for half-maximal inhibition (IC50) was found to be 2080 nM.

For `O=C(C(O)c1cccc(C(F)(F)F)c1)N1CCC(=O)N2C[C@H](Oc3cnc(C4CC4)cn3)C[C@H]2C1` (stereo partly drawn) [Example 40, (8R,9aS)-8-[(5-cyclopropylpyrazin-2-yl)oxy]-2-{hydroxy[3-(trifluoromethyl)phenyl]acetyl}octahydro-5H-pyrrolo[1,2-a][1,4]diazepin-5-one], the IC50 is 4700 nM.

As to `CNC(C(=O)N1CCC(=O)N2C[C@H](Oc3cnc(C4CC4)cn3)C[C@H]2C1)c1cccc(C(F)(F)F)c1` (stereo partly drawn) [Example 41, (8R,9aS)-8-[(5-cyclopropylpyrazin-2-yl)oxy]-2-{(methylamino)[3-(trifluoromethyl)phenyl]acetyl}octahydro-5H-pyrrolo[1,2-a][1,4]diazepin-5-one], the half-maximal inhibitory concentration (IC50) came out at 3450 nM.

For `O=C1CCN(Cc2cccc(OC(F)(F)F)c2)C[C@@H]2C[C@@H](Oc3cnc(C4CC4)cn3)CN12` [Example 43, (8R,9aS)-8-[(5-cyclopropylpyrazin-2-yl)oxy]-2-[3-(trifluoromethoxy)benzyl]octahydro-5H-pyrrolo[1,2-a][1,4]diazepin-5-one], the IC50 is 1110 nM.

With `O=C1CCN(Cc2cccc(C(F)(F)F)c2)C[C@@H]2C[C@@H](Oc3ccc(C(F)(F)F)cn3)CN12` [Example 45, (8R,9aS)-2-[3-(trifluoromethyl)benzyl]-8-{[5-(trifluoromethyl)pyridin-2-yl]oxy}octahydro-5H-pyrrolo[1,2-a][1,4]diazepin-5-one], the IC50 amounted to 620 nM.

Regarding `O=C1CCN(c2ccc(C(F)(F)F)cn2)C[C@H]2C[C@H](Oc3cnc(C4CC4)cn3)CN12` [Example 46, (8S,9aR)-8-[(5-cyclopropylpyrazin-2-yl)oxy]-2-[5-(trifluoromethyl)pyridin-2-yl]octahydro-5H-pyrrolo[1,2-a][1,4]diazepin-5-one], the IC50 is 5070 nM.

Consider `O=C1CCN(c2cccc(C(F)(F)F)n2)C[C@@H]2C[C@@H](Oc3cnc(C4CC4)cn3)CN12` [Example 48, (8R,9aS)-8-[(5-cyclopropylpyrazin-2-yl)oxy]-2-[6-(trifluoromethyl)pyridin-2-yl]octahydro-5H-pyrrolo[1,2-a][1,4]diazepin-5-one], for which the concentration for half-maximal inhibition (IC50) worked out at 1540 nM.

For the compound `O=C1CCN(c2ncc(C(F)(F)F)cc2Cl)C[C@@H]2C[C@@H](Oc3cnc(C4CC4)cn3)CN12` [Example 49, (8R,9aS)-2-[3-chloro-5-(trifluoromethyl)pyridin-2-yl]-8-[(5-cyclopropylpyrazin-2-yl)oxy]octahydro-5H-pyrrolo[1,2-a][1,4]diazepin-5-one], the IC50 worked out at 2130 nM.

On to `O=C1CCN(c2ncc(C(F)(F)F)cc2F)C[C@@H]2C[C@@H](Oc3cnc(C4CC4)cn3)CN12` [Example 50, (8R,9aS)-8-[(5-cyclopropylpyrazin-2-yl)oxy]-2-[3-fluoro-5-(trifluoromethyl)pyridin-2-yl]octahydro-5H-pyrrolo[1,2-a][1,4]diazepin-5-one], for which the IC50 came out at 2460 nM.

In the case of `O=C1CCN(c2cnc(C3CC3)cn2)C[C@@H]2C[C@@H](Oc3ccc(C(F)(F)F)cn3)CN12` [Example 51, (8R,9aS)-2-(5-cyclopropylpyrazin-2-yl)-8-{[5-(trifluoromethyl)pyridin-2-yl]oxy}octahydro-5H-pyrrolo[1,2-a][1,4]diazepin-5-one], the IC50 is 7350 nM.

On to `O=C1CCN(S(=O)(=O)c2ccc(C(F)(F)F)cc2)C[C@@H]2C[C@@H](Oc3ccc(C(F)(F)F)cn3)CN12` [Example 52, (8R,9aS)-2-{[4-(trifluoromethyl)phenyl]sulfonyl}-8-{[5-(trifluoromethyl)pyridin-2-yl]oxy}octahydro-5H-pyrrolo[1,2-a][1,4]diazepin-5-one], for which the half-maximal inhibitory concentration (IC50) was determined as 1260 nM.

Consider `O=C1CCN(S(=O)(=O)c2cccc(C(F)(F)F)c2)C[C@@H]2C[C@@H](Oc3ccc(C(F)(F)F)nc3)CN12` [Example 53, (8R,9aS)-2-{[3-(trifluoromethyl)phenyl]sulfonyl}-8-{[6-(trifluoromethyl)pyridin-3-yl]oxy}octahydro-5H-pyrrolo[1,2-a][1,4]diazepin-5-one], for which the IC50 was determined as 4020 nM.

For the origin of these results see US9382258B2, “Agents for treating pain and uses thereof” (AbbVie Inc., priority 2012, dated 2016).
